Target: T1, renin (Homo sapiens, UniProt P00797)
T1 construct: made in house; host or cells: Chinese Hamster Ovary cells
T1 sequence (P00797 67-406): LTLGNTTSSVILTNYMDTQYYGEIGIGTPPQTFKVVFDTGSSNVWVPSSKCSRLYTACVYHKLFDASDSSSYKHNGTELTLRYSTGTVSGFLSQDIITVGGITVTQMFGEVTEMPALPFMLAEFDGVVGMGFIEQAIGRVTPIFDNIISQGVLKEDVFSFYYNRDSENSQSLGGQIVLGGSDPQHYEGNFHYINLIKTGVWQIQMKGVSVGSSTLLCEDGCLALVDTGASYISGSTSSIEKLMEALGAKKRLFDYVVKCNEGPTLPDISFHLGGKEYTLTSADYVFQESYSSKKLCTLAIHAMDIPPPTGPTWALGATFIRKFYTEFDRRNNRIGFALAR
Assay: renin enzyme assay (which of the described assay systems is not specified)
Type: biochemical
Conditions: in the several assay system as described above
Protocol: Recombinant human renin (expressed in Chinese Hamster Ovary cells and purified using standard methods) at 7.5 nM concentration is incubated with test compound at various concentrations for 1 h at RT in 0.1 M Tris-HCl buffer, pH 7.4, containing 0.05 M NaCl, 0.5 mM EDTA and 0.05% CHAPS. Synthetic peptide substrate Arg-Glu(EDANS)-Ile-His-Pro-Phe-His-Leu-Val-Ile_His_Thr-Lys(DABCYL)-Arg9 is added to a final concentration of 2 μM and increase in fluorescence is recorded at an excitation wave-length of 350 nm and at an emission wave-length of 500 nm in a microplate spectro-fluorimeter. IC50 values are calculated from percentage of inhibition of renin activity as a function of test compound concentration (Fluorescence Resonance Energy Transfer, FRET, assay).
Alternatively, recombinant human renin (expressed in Chinese Hamster Ovary cells and purified using standard methods) at 0.5 nM concentration is incubated with test compound at various concentrations for 2 h at 37° C. in 0.1 M Tris-HCl buffer, pH 7.4, containing 0.05 M NaCl, 0.5 mM EDTA and 0.05% CHAPS. Synthetic peptide substrate Arg-Glu(EDANS)-Ile-His-Pro-Phe-His-Leu-Val-Ile_His_Thr-Lys(DABCYL)-Arg9 is added to a final concentration of 4 μM and increase in fluorescence is recorded at an excitation wave-length of 340 nm and at an emission wave-length of 485 nm in a microplate spectro-fluorimeter. […]

Cc1cccc(CN(C(=O)[C@H]2CNCC[C@@H]2c2cccc(-c3ccccc3)c2)C2CC2)c1C [Example 75]
inhibitory activity compared with the active enantiomer of Example 8: same inhibitory activity to an active enantiomer of Example 8
